From publication PMC6301270 (MedChemComm, 2018)

Test system: T.b. brucei (strain 427) bloodstream form parasites
Assay: T.b. brucei single concentration screen (10 μM)
Conditions: Trypanosoma brucei, read-out: T.b.brucei % viability (10 µM)

Going from `CC(C)n1ncc2c(C(=O)NCC(c3cccs3)N3CCOCC3)cc(-c3ccccc3)nc21` (stereo not drawn) [MMV676406, CC(C)n1ncc2c(cc(nc12)c3ccccc3)C(=O)NCC(N4CCOCC4)c5cccs5] to `COCC(C)NC(=O)CSc1ncnc2sc(-c3ccccc3)cc12` (stereo not drawn) [MMV676536, COCC(C)NC(=O)CSc1ncnc2sc(cc12)-c1ccccc1], the viability at 10 µM rises from 61% to 97%.

First: N#Cc1nc(-c2ccccc2)oc1S(=O)(=O)c1ccc(Cl)cc1 [MMV676412, Clc1ccc(cc1)S(=O)(=O)c2oc(nc2C#N)c3ccccc3]
Second: Cc1ccc2oc(-c3cc(NC(=O)Cc4ccccc4)ccc3Cl)nc2c1 [MMV676509, Cc1ccc2oc(nc2c1)c3cc(NC(=O)Cc4ccccc4)ccc3Cl]
The viability at 10 µM of the first is lower: 28% for the first, 99% for the second.

Going from `Cc1ccc(NC(=O)CC2COc3ccccc3O2)cc1Cl` (stereo not drawn) [MMV676431, Cc1ccc(NC(=O)CC2COc3ccccc3O2)cc1Cl] to `COc1cccc(OC)c1C(=O)Nc1ccc(Cl)c(-c2nc3ccccc3s2)c1` [MMV676472, COc1cccc(OC)c1C(=O)Nc2ccc(Cl)c(c2)c3nc4ccccc4s3], the viability at 10 µM rises from 77% to 100%.

First: Cc1ccc2nc(Cl)c(CNCc3cccs3)cc2c1 [MMV676439, Cc1ccc2nc(Cl)c(CNCc3cccs3)cc2c1]
Second: CCc1nc2ccccc2n1CC(O)COc1cc(C)ccc1Cl (stereo not drawn) [MMV676449, CCc1nc2ccccc2n1CC(O)COc3cc(C)ccc3Cl]
The viability at 10 µM of the first is higher: 99% for the first, 83% for the second.

Compared with `CC(C)c1ncc(-c2ccncc2)c([C@H]2CC[C@H](CNC(=O)c3cccnc3)CC2)n1` [MMV676442, CC(C)c1ncc(c2ccncc2)c(n1)[C@@H]3CC[C@@H](CNC(=O)c4cccnc4)CC3], `O=C(CCC1CCCCC1)Nc1cccc(-c2nnc(-c3ccco3)o2)c1` [MMV676589, O=C(CCC1CCCCC1)Nc2cccc(c2)c3oc(nn3)c4occc4] is lower in viability at 10 µM: 103% for the first, 95% for the second.

Going from `O=C(NC1CCCCC1)N1CCN(Cc2ccc3c(c2)OCO3)CC1` [MMV676444, O=C(NC1CCCCC1)N2CCN(Cc3ccc4OCOc4c3)CC2] to `O=C(c1cc2ccccc2o1)N1CCN(Cc2ccc3c(c2)OCO3)CC1` [MMV676520, O=C(N1CCN(Cc2ccc3OCOc3c2)CC1)c4oc5ccccc5c4], the viability at 10 µM falls from 109% to 97%.

First: CCCn1c(CNc2ccccc2O)nc2ccccc21 [MMV676445, CCCn1c(CNc2ccccc2O)nc3ccccc13]
Second: COc1ccccc1OCCCCn1c(C2CC2)nc2ccccc21 [MMV676474, COc1ccccc1OCCCCn2c(nc3ccccc23)C4CC4]
The viability at 10 µM of the first is higher: 109% for the first, 93% for the second.

Going from `CCOC(=O)c1cc(-c2csc(Nc3c(C)cc(C)cc3C)n2)on1` [MMV676461, CCOC(=O)c1cc(on1)c2csc(Nc3c(C)cc(C)cc3C)n2] to `Cc1cc(C)cc(COc2ccc3c(C)c(CCC(=O)O)c(=O)oc3c2C)c1` [MMV676476, CC1=C(CCC(=O)O)C(=O)Oc2c(C)c(OCc3cc(C)cc(C)c3)ccc12], the viability at 10 µM falls from 102% to 94%.

Going from `CCOc1ccc(OCC(=O)Nc2cc(C)cc(C)c2)cc1` [MMV676470, CCOc1ccc(OCC(=O)Nc2cc(C)cc(C)c2)cc1] to `CCCn1nnc(NC(=O)COc2ccc(C3CCCCC3)cc2)n1` [MMV676597, CCCn1nnc(NC(=O)COc2ccc(cc2)C3CCCCC3)n1], the viability at 10 µM falls from 75% to 71%.

First: COC(=O)c1c(NC(=O)c2cc3ccccc3oc2=O)sc2c1CCN(Cc1ccccc1)C2 [MMV676480, COC(=O)c1c2CCN(Cc3ccccc3)Cc2sc1NC(=O)C4=Cc5ccccc5OC4=O]
Second: O=C(NCCc1c[nH]c2ccccc12)c1cc2ccccc2oc1=O [MMV676539, O=C(NCCc1c[nH]c2ccccc12)C3=Cc4ccccc4OC3=O]
The viability at 10 µM of the first is higher: 101% for the first, 83% for the second.

Going from `O=C(Nc1nnc(S)s1)c1cc(Br)ccc1Cl` [MMV676492, Sc1nnc(NC(=O)c2cc(Br)ccc2Cl)s1] to `O=C(Nc1nnc(-c2ccc(Cl)s2)o1)c1ccc(Cl)s1` [MMV676501, Clc1ccc(s1)C(=O)Nc2oc(nn2)c3ccc(Cl)s3], the viability at 10 µM falls from 106% to 93%.

First: Nc1cccnc1Nc1ccc(Cl)cc1 [MMV676524, Nc1cccnc1Nc2ccc(Cl)cc2]
Second: O=C(c1ccc(NCCO)cc1)C1C[C@H]1c1ccc(Cl)cc1 (stereo partly drawn) [MMV676877, OCCNc1ccc(cc1)C(=O)C2C[C@H]2c3ccc(Cl)cc3]
The viability at 10 µM of the first is higher: 110% for the first, 102% for the second.

First: COc1ccc(-c2cc(NC(=O)c3ccc(F)cc3Cl)ccc2OC)cc1 [MMV676526, COc1ccc(cc1)c2cc(NC(=O)c3ccc(F)cc3Cl)ccc2OC]
Second: COc1ccc(-c2nc(-c3cccc(NC(=O)Cc4ccc(F)cc4)c3)no2)cc1OC [MMV676571, COc1ccc(cc1OC)c2onc(n2)c3cccc(NC(=O)Cc4ccc(F)cc4)c3]
The viability at 10 µM of the first is higher: 93% for the first, 53% for the second.

First: Cc1cccc(NC(=O)c2cc(S(=O)(=O)N(C)c3ccc(F)cc3)ccc2Cl)n1 [MMV676528, CN(c1ccc(F)cc1)S(=O)(=O)c2ccc(Cl)c(c2)C(=O)Nc3cccc(C)n3]
Second: COc1ccc(Nc2ccccc2NC(=O)c2ccc(O)nc2)cc1 [MMV676554, COc1ccc(Nc2ccccc2NC(=O)c3ccc(O)nc3)cc1]
The viability at 10 µM of the first is lower: 96% for the first, 115% for the second.

First: Cc1nnc(NCc2cccc(Cl)c2)c2ccccc12 [MMV676555, Cc1nnc(NCc2cccc(Cl)c2)c3ccccc13]
Second: CC(C)(C)n1nc(Cc2cccc3ccccc23)c2c(N)ncnc21 [MMV676599, CC(C)(C)n1nc(Cc2cccc3ccccc23)c4c(N)ncnc14]
The viability at 10 µM of the first is higher: 97% for the first, 87% for the second.

First: CC1=NN(c2nc3ccccc3s2)C(=O)C1Cc1cccc2ccccc12 (stereo not drawn) [MMV676558, CC1=NN(C(=O)C1Cc2cccc3ccccc23)c4nc5ccccc5s4]
Second: C[C@]1(O)C[C@@H](c2nc(-c3ccc4ccc(-c5ccccc5)nc4c3)c3c(N)nccn32)C1 [MMV676605, C[C@@]1(O)C[C@@H](C1)c2nc(c3ccc4ccc(nc4c3)c5ccccc5)c6c(N)nccn26]
The viability at 10 µM of the first is lower: 45% for the first, 67% for the second.

First: O=C(NC1=NCCS1)c1sc2cc(F)ccc2c1Cl [MMV676584, Fc1ccc2c(Cl)c(sc2c1)C(=O)NC3=NCCS3]
Second: Cc1cc(C)c2cc(C(=O)NC3CCCCCCC3)[nH]c2c1 [MMV687146, Cc1cc(C)c2cc([nH]c2c1)C(=O)NC3CCCCCCC3]
The viability at 10 µM of the first is lower: 82% for the first, 92% for the second.

First: Nc1c2c(nc3sc4c(c13)CCCC4)CCCC2 [MMV676588, Nc1c2CCCCc2nc3sc4CCCCc4c13]
Second: CC1COC2(CCN(c3nc(=O)c4cc(C(F)(F)F)cc([N+](=O)[O-])c4s3)CC2)O1 (stereo not drawn) [MMV676603, CC1COC2(CCN(CC2)C3=NC(=O)c4cc(cc(c4S3)[N+](=O)[O-])C(F)(F)F)O1]
The viability at 10 µM of the first is higher: 99% for the first, 82% for the second.

First: CCn1cnc2c(Nc3cc(F)cc(F)c3)nc(C#N)nc21 [MMV676881, CCn1cnc2c(Nc3cc(F)cc(F)c3)nc(nc12)C#N]
Second: COc1ccc(Cn2cnc3c(-c4ccco4)nc(Cl)nc32)cc1 [MMV687170, COc1ccc(Cn2cnc3c(nc(Cl)nc23)c4occc4)cc1]
The viability at 10 µM of the first is lower: 70% for the first, 97% for the second.

Compared with `NC(=O)c1cc(-c2ccsc2)ccc1OCCOc1ccccc1` [MMV687138, NC(=O)c1cc(ccc1OCCOc2ccccc2)c3ccsc3], `O=C(C1CCN(c2cc(-n3cccc3)ncn2)CC1)N1CCc2ccccc2C1` [MMV687172, O=C(C1CCN(CC1)c2cc(ncn2)n3cccc3)N4CCc5ccccc5C4] is lower in viability at 10 µM: 104% for the first, 93% for the second.

Going from `CCCCS(=O)(=O)Nc1ccc2cnn(C)c2c1` [MMV687145, CCCCS(=O)(=O)Nc1ccc2cnn(C)c2c1] to `CCc1ccc([C@@H]2C[C@H](C(F)(F)F)n3ncc(C(=O)NCc4ccc(OC)cc4)c3N2)cc1` [MMV687180, CCc1ccc(cc1)[C@@H]2C[C@@H](n3ncc(C(=O)NCc4ccc(OC)cc4)c3N2)C(F)(F)F], the viability at 10 µM falls from 95% to 57%.
